Results: US20040162263A1, “Pharmaceutical formulations targeting specific regions of the gastrointesinal tract” (priority 2002, published 2004)

What was measured:
in vivo = conditions: dog
Experimental: Pentostatin was administered to IVAP beagle dogs (n=3) at 0.2 mg/kg via intravenous, oral and through previously implanted intestinal ports (jejunum, ileum and colon). Extravascular administration of pentostatin was done in saline water for infusion or in a pH=7 phosphate buffer solution to control the intestinal pH. Blood samples were taken systemic and through a port in the portal vein, plasma separated and kept frozen at −20° C. until analysis.
Six adult male beagle dogs (obtained from Summit Ridge Farms, Susquehanna, Pa.; between the ages of 1 and 5 years and weighed between 9 and 16 kg) were prepared with indwelling catheters in the Upper and Lower Small Intestines (USI and LSI), Colon (IC) and Portal Vein (PV) and were dosed with pentostatin at 0.2 mg/kg. The drug formulation was delivered either orally, intraveneously or, in most cases, through the indwelling ports and blood samples were drawn to determine the pharmacokinetics of each permutation. Systemic blood samples were collected from acutely placed IV catheters in the brachial vein, while PV samples were collected through the indwelling port and catheter. All blood samples were spun down, the plasma decanted, frozen and stored at −70 deg Celsius before subject to analysis.
The IVAP dog is prepared with indwelling catheters attached to subcutaneous ports (Titanium Vascular Access Portsg from Access Technologies in Skokie, Ill.) for delivery of drug formulations directly to various parts of the Gastrointestinal Tract. […] In addition, collecting blood samples directly from the portal vein during parenteral as well as oral and intestinal delivery can be combined with direct portal delivery studies to tweeze apart the first pass effects of both liver and intestinal cell enzymatic degradation effects on the drug being tested. Next, delivery of various formulations under different conditions can help in the development of effective oral delivery systems. Finally, delivery of absorption enhancers at various intervals, prior to the delivery of the drug, can be used to determine the recovery time of intestinal wall integrity following dosing with a particular formulation.
IVAP dogs are fitted with three intestinal catheters, in addition to a portal vein catheter. Following induction of general anesthesia, the animal is placed in a supine position, scrubbed and prepped with betadine solution and draped under sterile conditions. A vertical midline incision is made through the skin and the abdominal cavity is entered. A 5F Heparin Coated CBAS® tubing, is inserted into the portal vein and secured with a purse string of 7-0 prolene suture. A small square of Surgicel® is placed over the insertion site and the fascia is closed over it to prevent leakage or dislodging of the tubing. The Upper Small Intestine (USI) port tubing is inserted 10 cm distal to the ligament of Treitz. The small bowel is then measured from the pyloric sphincter to the ileocecal valve and the Lower Small Intestine (LSI) port tubing is inserted one third of the way back from the ileocecal valve. The colon tubing is inserted 10 cm distal to the ileocecal valve (Colon). 7F Sylastic® tubing is used for each intestinal catheter. […] The tubings are secured with a silk “purse-string” suture and the modified Witzel Tunnel technique. After placement of the tubes, the bowel is secured to the abdominal wall and the proximal ends of the tubings are tunneled out of the abdominal cavity and into a subcutaneous pocket on the caudal aspect of the right chest, along with the PV catheter. The abdominal incision is closed in two layers. The Linea Alba is approximated with 0 Vicryl and the skin is closed with 2-0 Vicryl.
In case of IV administration, the drug is dissolved in normal sterile saline to a concentration of 1 mg/ml and is passed through a […] sterilizing filter prior to administration to the brachial vein.

[1] = Physico-chemical properties of pentostatin (solubility, stability); type: physicochemical
[2] = system: fetal hemoglobin levels (Hb F); conditions: orally 8 mg/kg, repeatedly phlebotomized baboon; cited from earlier work
L1210 leukemic mice = conditions: cited from earlier work

SMILES	AUC2/AUC1 (portal vein) (in vivo; po)	Relative bioavailability in reference to oral (in vivo; male, beagle)	Ratio Treat2/Treat1 of systemic bioavailability (in vivo; male, beagle, po)	bioavailability % change, AVERAGE (in vivo; male, beagle, po)	decrease in the systemic pentostatin bioavailability (in vivo; male, beagle, po)	Mean systemic AUC0-inf (in vivo; male, beagle, po, 0.2 mg/kg)	bioavailability (in vivo; male, beagle, po, 0.2 mg/kg, Individual bioavailability % change)	AUC(0-inf) (in vivo; male, beagle, po, 0.2 mg/kg, Mean systemic AUC0-inf)	bioavailability (in vivo; male, beagle, po, 0.2 mg/kg, Relative bioavailability calculated in portal vein)	bioavailability (in vivo; male, beagle, po, 0.2 mg/kg, Relative bioavailability in reference to oral)	bioavailability (in vivo; male, beagle, po, 0.2 mg/kg, pH 7, systemic bioavailability (F), mean)	bioavailability (in vivo; male, beagle, po, 0.2 mg/kg, systemic bioavailability (F), mean)	solubility in ethanol and methanol [1]	stability in aqueous solution ([1]; 1 mg/ml)	solid stability at high temperature and humidity ([1]; 37° C., 75% RH)	solubility in water ([1]; at various pHs)	hygroscopicity ([1]; crystalline form)	solid stable ([1]; up to temperatures of 45° C.)	elevation in the fetal hemoglobin levels (Hb F) [2]	activity parenteral versus oral (L1210 leukemic mice)
OC[C@H]1O[C@@H](n2cnc3c2NC=NC[C@H]3O)C[C@@H]1O [pentostatin, 2′-deoxycoformycin]	1.50	620%	0.51	−26%	50%	10,425 ± 6,652 (64) ng × min/ml	5%	340 ng·h/mL	100%	100%	14.3%	28%	slightly soluble	most stable at pH 7 or above and degrade quickly at pHs lower than 4	loses the potency	freely soluble	not hygroscopic	at least 12 months	–	–
Nc1ncn([C@@H]2O[C@H](CO)[C@@H](O)[C@H]2O)c(=O)n1 [5-azacytidine]	–	–	–	–	–	–	–	–	–	–	–	–	–	–	–	–	–	–	no elevation	more active when administered parenterally than orally
